The source of these data is article PMC9558907, “Synthesis and pharmacological evaluation of newly detected synthetic cannabinoid receptor agonists AB-4CN-BUTICA, MMB-4CN-BUTINACA, MDMB-4F-BUTICA, MDMB-4F-BUTINACA and their analogs” (Frontiers in Psychiatry, 2022).

Test [1] has as its target T1, human CB2 (Homo sapiens, UniProt P34972). The experiment in a line: fluorescence-based membrane potential assay (GIRK activation) in AtT20 cells. The conditions noted are these: for hCB2 Emax ±SEM: AtT20-hCB2, normalised to 1 μM CP55,940; for EC50: hCB2 EC50, AtT20-hCB2, value in brackets after pEC50. Further details: expressed in transfected cells; host or cells: mouse AtT20 FlpIn cells. The format is cell-based.

Test [2] addresses T2, human CB1 (Homo sapiens, UniProt P21554). Described as above. The conditions noted are these: for hCB1 Emax ±SEM: normalised to 1 μM CP55,940; for hCB1 maximal response at 10 μM (footnote d): highest concentration tested, curve not fitted. Further details: expressed in transfected cells; host or cells: mouse AtT20 FlpIn cells. Format: cell-based.
The target in test [3] is T2, human CB1. The experiment in a line: competitive radioligand binding assay, displacement of [3H]CP55,940, HEK cell membranes. Further details: expressed in transfected cells; host or cells: HEK293 cells, P2 membrane preparation. The conditions noted are these: [3H]CP55,940 1 nM.
In test [4] the target is T1, human CB2. The test is described as above. The settings on record: [3H]CP55,940 1 nM. Further details: expressed in transfected cells; host or cells: HEK293 cells, P2 membrane preparation.
[5] abbreviates: hCB1 EC50, AtT20-hCB1, value in brackets after pEC50.
Where [6] appears, read: hCB1 Ki, value in brackets after pKi.
Setting [7] is: hCB2 Ki, value in brackets after pKi.
Where [8] appears, read: hCB1 pEC50 ±SEM, AtT20-hCB1, DNC = did not converge, ND = < 50% change in fluorescence at 10 μM.
Setting [9] is: hCB2 pKi ±SEM, mean ± SEM of 3 to 6 independent experiments.

T2 sequence (P21554 whole entry): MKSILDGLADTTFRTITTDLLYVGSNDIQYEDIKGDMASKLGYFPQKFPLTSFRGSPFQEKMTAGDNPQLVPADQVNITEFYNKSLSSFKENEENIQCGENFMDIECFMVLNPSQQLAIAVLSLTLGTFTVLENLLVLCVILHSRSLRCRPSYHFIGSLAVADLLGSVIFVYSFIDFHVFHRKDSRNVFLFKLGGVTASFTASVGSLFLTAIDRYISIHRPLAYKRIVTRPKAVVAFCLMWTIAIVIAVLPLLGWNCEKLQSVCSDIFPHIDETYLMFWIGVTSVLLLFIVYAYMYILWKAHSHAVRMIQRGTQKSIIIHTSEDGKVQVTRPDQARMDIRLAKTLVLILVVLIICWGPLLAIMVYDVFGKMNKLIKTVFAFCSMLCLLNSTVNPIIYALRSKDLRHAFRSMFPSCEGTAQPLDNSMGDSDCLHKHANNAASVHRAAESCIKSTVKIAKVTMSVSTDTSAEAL
T1 sequence (P34972 whole entry): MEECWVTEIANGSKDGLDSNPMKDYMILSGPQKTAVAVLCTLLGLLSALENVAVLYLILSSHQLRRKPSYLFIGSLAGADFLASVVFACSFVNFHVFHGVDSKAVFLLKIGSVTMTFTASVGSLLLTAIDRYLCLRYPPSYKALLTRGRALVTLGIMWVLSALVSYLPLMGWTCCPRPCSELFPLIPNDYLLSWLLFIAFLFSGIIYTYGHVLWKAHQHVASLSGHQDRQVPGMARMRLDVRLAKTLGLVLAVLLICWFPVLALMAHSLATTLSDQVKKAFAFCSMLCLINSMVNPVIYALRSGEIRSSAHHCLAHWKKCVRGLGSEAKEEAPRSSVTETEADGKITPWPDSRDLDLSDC

Consider `COC(=O)[C@@H](NC(=O)c1nn(CCCCC#N)c2ccccc12)C(C)C` [Compound 6, methyl (1-(4-cyanobutyl)-1H-indazole-3-carbonyl)-L-valinate], for which the “hCB2 Emax ±SEM” value on human CB2 [1] is recorded as 101 ± 4 % CP55,940. For the same molecule, the EC50 is 2.14 nM on human CB2 [1] and 3.61 nM at human CB1 [2] (setting [5]). For the same molecule, the “hCB1 Emax ±SEM” value on human CB1 [2] (AtT20-hCB1) was 117 ± 6 % CP55,940. The inhibition constant (Ki) on human CB1 [3] (setting [6]) was 17.4 nM; on human CB2 [4] (setting [7]) it was 6.46 nM.
In the case of `COC(=O)[C@@H](NC(=O)c1cn(CCCCF)c2ccccc12)C(C)(C)C` [Compound 7, methyl (S)-2-(1-(4-fluorobutyl)-1H-indole-3-carboxamido)-3,3-dimethylbutanoate], the “hCB2 Emax ±SEM” value on human CB2 [1] is recorded as 110 ± 3 % CP55,940. Moreover, the EC50 at human CB2 [1] is 2.87 nM; on human CB1 [2] (setting [5]), 3.43 nM; on human CB1 [2] (setting [8]), 3.39 nM. The “hCB1 Emax ±SEM” value at human CB1 [2] (AtT20-hCB1) is reported as 114 ± 3 % CP55,940. Moreover, the Ki on human CB1 [3] (setting [6]) was 13.2 nM.
Consider `COC(=O)[C@@H](NC(=O)c1nn(CCCCF)c2ccccc12)C(C)(C)C` [Compound 8, methyl (S)-2-(1-(4-fluorobutyl)-1H-indazole-3-carboxamido)-3,3-dimethylbutanoate], for which the “hCB2 Emax ±SEM” value at human CB2 [1] is reported as 103 ± 5 % CP55,940. For the same molecule, the EC50 on human CB2 [1] was 3.28 nM; on human CB1 [2] (setting [8]), 0.407 nM. Further, the “hCB1 Emax ±SEM” value on human CB1 [2] (AtT20-hCB1) is listed as 106 ± 3 % CP55,940. Also, the results for the inhibitory constant (Ki) on human CB1 [3] (setting [6]), on human CB2 [4] (setting [7]) and on human CB2 [4] (setting [9]) were 6.2 nM, 0.1 nM and 0.12 nM, respectively.
For `CC(C)[C@H](NC(=O)c1nn(CCCCC#N)c2ccccc12)C(N)=O` [Compound 11, (S)-N-(1-amino-3-methyl-1-oxobutan-2-yl)-1-(4-cyanobutyl)-1H-indazole-3-carboxamide], at human CB2 [1], the “hCB2 Emax ±SEM” value is 103 ± 1 % CP55,940. Further, the values for the EC50 at human CB2 [1] and on human CB1 [2] (setting [5]) were 4.97 nM and 26.3 nM, respectively. For the same molecule, the “hCB1 Emax ±SEM” value at human CB1 [2] (AtT20-hCB1) is listed as 111 ± 5 % CP55,940. For the same molecule, the Ki was 43.7 nM on human CB1 [3] (setting [6]) and 24 nM on human CB2 [4] (setting [7]).
Regarding `N#CCCCCn1nc(C(=O)N[C@@H](Cc2ccccc2)C(N)=O)c2ccccc21` [Compound 13, (S)-N-(1-amino-1-oxo-3-phenylpropan-2-yl)-1-(4-cyanobutyl)-1H-indazole-3-carboxamide], the “hCB2 Emax ±SEM” value on human CB2 [1] is 107 ± 11 % CP55,940. Moreover, the concentration giving a half-maximal response (EC50) at human CB2 [1] was 74.1 nM. Besides, the “hCB1 maximal response at 10 μM (footnote d)” value on human CB1 [2] (AtT20-hCB1) is 104 % CP55,940; at human CB1 [2] (AtT20-hCB1, listed as APP-4CN-BUTINACA (13)), 104 ± 3^d % CP55,940. Moreover, the “hCB1 pEC50 ±SEM” value at human CB1 [2] (AtT20-hCB1, DNC = did not converge, ND = < 50% change in fluorescence at 10 μM) is “DNC^b”. Moreover, the Ki at human CB1 [3] (setting [6]) is 1100 nM; on human CB1 [3] (hCB1 pKi ±SEM, mean ± SEM of 3 to 6 independent experiments), 1070 nM; on human CB2 [4] (setting [7]), 170 nM; on human CB2 [4] (setting [9]), 166 nM.
As to `COC(=O)[C@@H](NC(=O)c1cn(CCCCC#N)c2ccccc12)C(C)C` [Compound 17, methyl (1-(4-cyanobutyl)-1H-indole-3-carbonyl)-L-valinate], the “hCB2 Emax ±SEM” value on human CB2 [1] was 95 ± 3 % CP55,940. In addition, the EC50 was 13.5 nM at human CB2 [1] and 50.8 nM on human CB1 [2] (setting [5]). In addition, the “hCB1 Emax ±SEM” value at human CB1 [2] (AtT20-hCB1) is 105 ± 3 % CP55,940. Moreover, the Ki was 159 nM on human CB1 [3] (setting [6]) and 85.1 nM on human CB2 [4] (setting [7]).
With `COC(=O)[C@@H](NC(=O)c1nn(CCCCC#N)c2ccccc12)C(C)(C)C` [Compound 20, methyl (S)-2-(1-(4-cyanobutyl)-1H-indazole-3-carboxamido)-3,3-dimethylbutanoate], the “hCB2 Emax ±SEM” value at human CB2 [1] is 101 ± 2 % CP55,940. In addition, the EC50 on human CB2 [1] was 3.56 nM; at human CB1 [2] (setting [5]) it was 0.72 nM. In addition, the “hCB1 Emax ±SEM” value on human CB1 [2] (AtT20-hCB1) is listed as 113 ± 2 % CP55,940. Further, the Ki was 1.29 nM on human CB1 [3] (setting [6]) and 0.295 nM at human CB2 [4] (setting [7]).
With `COC(=O)[C@@H](NC(=O)c1cn(CCCCC#N)c2ncccc12)C(C)C` [Compound 22, methyl (1-(4-cyanobutyl)-1H-pyrrolo[2,3-b]pyridine-3-carbonyl)-L-valinate], the “hCB2 Emax ±SEM” value at human CB2 [1] is listed as 95 ± 4 % CP55,940. In addition, the figures for the 50% effective concentration (EC50) on human CB2 [1] and at human CB1 [2] (setting [5]) were 68.3 nM and 430 nM, respectively. Also, the “hCB1 Emax ±SEM” value on human CB1 [2] (AtT20-hCB1) was 114 ± 7 % CP55,940. For the same molecule, the Ki on human CB1 [3] (setting [6]) was 1510 nM; at human CB2 [4] (setting [7]), 316 nM.

Broadly, the EC50 is the concentration giving half of the maximal effect. What is called Ki is the equilibrium dissociation constant of an inhibitor or competing ligand from its target. A higher Ki goes with a looser hold on the target.
